Measured values taken from the supplement of paper PMC10307832.

Columns and labels:
Experiment in all cases: relative viability (nuclei count vs DMSO), 5 days (fraction); higher = more cells survive
[1] = compound: CC1=C(C(=O)N2C=CSC2=N1)CCN3CCC(=C(C4=CC=CC=C4)C5=CC=C(C=C5)F)CC3 + Nc1nc2[nH]cc(CCc3ccc(C(=O)N[C@@H](CCC(=O)O)C(=O)O)cc3)c2c(=O)[nH]1 [Pemetrexed] (partner 0.2 µM)
Summary of the method: (§1)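 A single step with final 0.05% Triton X-100, 1% formaldehyde and 1 ug/ml Hoechst fixed the cells and stained nuclei 5 days after treatment. Lung cancer cell lines in 1536-well plates had been treated by pin tool the day after seeding with one drug alone or a fixed anchor-drug dose plus five library-drug doses (not always all listed) in √10 steps, and nuclei were counted on 4× images. Relative viability is the ratio of nuclei in treated wells to nuclei in vehicle wells, taken as the median of duplicate plates.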

[2] = compound: CC1=C(C(=O)N2C=CSC2=N1)CCN3CCC(=C(C4=CC=CC=C4)C5=CC=C(C=C5)F)CC3 + Cc1nc(NC(=O)N2CCC[C@H]2C(N)=O)sc1-c1ccnc(C(C)(C)C(F)(F)F)c1 [Alpelisib] (partner 2 µM)
Summary of the method: as §1

[3] = compound: CC1=C(C(=O)N2C=CSC2=N1)CCN3CCC(=C(C4=CC=CC=C4)C5=CC=C(C=C5)F)CC3 + CC(C)C[C@H](NC(=O)[C@H](Cc1ccccc1)NC(=O)c1cnccn1)B(O)O [Bortezomib] (partner 0.002 µM)
Summary of the method: as §1

[4] = compound: CC1=C(C(=O)N2C=CSC2=N1)CCN3CCC(=C(C4=CC=CC=C4)C5=CC=C(C=C5)F)CC3 + O=C(c1cc(Cc2n[nH]c(=O)c3ccccc23)ccc1F)N1CCN(C(=O)C2CC2)CC1 [Olaparib] (partner 8 µM)
Summary of the method: as §1

Row | Cell Line | relative viability ([1]; first compound 0.08 µM) | relative viability ([1]; first compound 0.8 µM) | relative viability ([1]; first compound 2.53 µM) | relative viability ([1]; first compound 8 µM) | relative viability ([2]; first compound 0.08 µM) | relative viability ([2]; first compound 0.253 µM) | relative viability ([2]; first compound 0.8 µM) | relative viability ([2]; first compound 2.53 µM) | relative viability ([2]; first compound 8 µM) | relative viability ([3]; first compound 0.08 µM) | relative viability ([3]; first compound 0.253 µM) | relative viability ([3]; first compound 0.8 µM) | relative viability ([3]; first compound 2.53 µM) | relative viability ([3]; first compound 8 µM) | relative viability ([4]; first compound 0.08 µM) | relative viability ([4]; first compound 0.8 µM) | relative viability ([4]; first compound 2.53 µM) | relative viability ([4]; first compound 8 µM) | relative viability ([1]; first compound 0.253 µM) | relative viability ([4]; first compound 0.253 µM)
1 | NCI-H2405 | 1.11 | 1.07 | 1.08 | 0.758 | 0.74 | 0.798 | 0.914 | 0.792 | 0.731 | 0.872 | 0.969 | 0.999 | 0.732 | 0.814 | 0.941 | 0.889 | 0.989 | 0.79 | – | –
2 | NCI-H3122 | 0.192 | 0.201 | 0.214 | 0.163 | 0.794 | 0.701 | 0.781 | 0.915 | 0.752 | 1.04 | 1.04 | 0.993 | 1.14 | 1.16 | 0.458 | 0.595 | 0.628 | 0.371 | 0.188 | 0.627
3 | PC-3 [JPC-3] | 1.16 | 0.995 | 1.01 | 1.02 | 0.959 | 1.1 | 1.07 | 1.08 | 0.899 | 0.811 | 0.895 | 0.969 | 1.01 | 0.642 | 1.04 | 1.21 | 1.31 | 1.05 | – | –
4 | PC-14 | 0.153 | 0.133 | 0.153 | 0.137 | 0.738 | 1.04 | 0.955 | 0.979 | 0.624 | 0.9 | 0.759 | 1.01 | 1.09 | 0.592 | 0.209 | 0.27 | 0.251 | 0.253 | 0.138 | 0.223
5 | RERF-LC-KJ | 0.502 | 0.439 | 0.486 | 0.481 | 0.743 | 0.844 | 0.8 | 0.758 | 0.633 | 1.02 | 1.02 | 1.16 | 1.18 | 1 | 0.968 | 0.845 | 0.89 | 0.706 | 0.476 | 0.819
6 | SK-LU-1 | 1.12 | 0.995 | 1.13 | 0.597 | 1.24 | 0.925 | 1.13 | 1.33 | 0.826 | 1.08 | 0.965 | 1.05 | 1.19 | 1.01 | 0.442 | 0.459 | 0.429 | 0.402 | 0.942 | 0.45
7 | SW 1573 | 0.998 | 0.786 | 0.933 | 0.578 | 0.829 | 0.829 | 0.739 | 0.657 | 0.469 | 1.26 | 1.16 | 1.05 | 1.06 | 0.649 | 0.502 | 0.465 | 0.625 | 0.357 | 0.854 | 0.323
8 | UMC-11 | 0.914 | 0.8 | 0.945 | 0.632 | 1.1 | 0.765 | 0.977 | 1.29 | 0.732 | 0.793 | 0.609 | 0.731 | 0.861 | 0.595 | 0.44 | 1.05 | 0.307 | 0.342 | – | –
